Experiments:
beta-catenin = assay: Beta-catenin protein in malignant melanoma cell line (FIG. 5B); type: cell-based
A375 cell line = assay: Cell counting by hemocytometer, trypan blue exclusion, A375; type: cell-based; conditions: 24 hours
Description: A HaCaT cell line was cultured in the same manner as described in Example 1. The cultured HaCaT cell line was plated onto a 60 mm plate at a concentration of 5×10^4 cells/well, and cultured in a CO2 incubator (37° C., 5%) for 24 hours. The cultured cells in respective plates were treated with pachastrissamine at a concentration of 10 μg/ml, and cultured in a CO2 incubator (37° C., 5%) for 24, 36, and 48 hours, respectively. After the culturing, the cells were washed with PBS, treated with trypsin-EDTA, and completely detached from the plate. Then, a hemocytometer was used to count the cells through trypan blue exclusion.
HaCaT, B16F10 and A375 cell lines were cultured in the same manner as described in Example 1. The cultured HaCaT cell line was plated onto a 60 mm plate at a concentration of 5×10^4 cells/well, and cultured in a CO2 incubator (37° C., 5%) for 24 hours. The cultured respective cells were divided into 4 groups. […] These groups were cultured in a CO2 incubator (37° C., 5%) for 24 hours, and then the number of cells were measured in the same manner as described in Example 2-2.

AKT = assay: Western blotting of AKT phosphorylation; type: cell-based; conditions: HaCaT, B16F10, A375, 10 μg/ml pachastrissamine, FIGS. 3A, 3B
Description: HaCaT, B16F10 and A375 cell lines were cultured in the same manner as described in Example 1. […] 30 minutes later, and 60 minutes later, each of the cell lines was resuspended in RIPA buffer [12 mM EDTA, 137 mM NaCl, 20 mM Tris-HCl (pH 8.0), 1 mM Na3VO4 (Sigma-Aldrich, USA) 10 mM NaF (Sigma), 1 mM PMSF (Sigma), 1% Triton X-100, 10% glycerol, protease inhibiting cocktail (Roche, Germany)], and then put on ice for 30 minutes so that the cells can be completely lysed. The lysate was centrifuged at 14000 rpm for 30 minutes, and the supernatant was collected. A BCA protein analysis kit (Pierce, Rockford, Ill.) was used to determine the concentration of each sample, and the sample was subjected to electrophoresis (SDS-PAGE). Western blotting was carried out on the protein isolated by the electrophoresis. After electrophoresis of the sample, the protein was transferred to a polyvinylidene fluoride membrane (Pall Corporation). Then, after blocking the membrane at room temperature for one hour using 5% BSA solution (Amresco, USA), it was treated with primary antibodies and reaction was carried out for 12 hours at 4° C. The primary antibodies were AKT antibody and Actin antibody (Cell Signaling Technology, Beverly, Mass.), which are antibodies associated in cell proliferation-related signaling. After reaction with primary antibodies, it was washed for about 30 minutes and further reacted for 1 hour at room temperature by treating with HRP-conjugated secondary antibodies. Then, after washing sufficiently for over 30 minutes, protein was identified using an ECL detection kit (intron Biotechnology).

ERK and FoxO3a = assay: Immunoprecipitation of ERK, binding between ERK and FoxO3a; type: cell-based, human; conditions: HaCaT; 10 μg/ml; 24 hours; anti-ERK immunoprecipitation; FIG. 4F
Description: In the same manner, a HaCaT cell line was treated with pachastrissamine, and immunoprecipitation was used to determine the degree of binding between ERK and FoxO3a, and the degree of FoxO3a ubiquitination caused by interaction. In order to carry out immunoprecipitation, the cells were plated on a 100 mm plate, and cultured in a CO2 incubator (37° C., 5%) for 24 hours. After about 12 hours of serum starvation, the cultured cell line was treated with 10 μg/ml of pachastrissamine for 24 hours. The cell line treated with pachastrissamine and another cell line not treated with pachastrissamine were resuspended in the RIPA buffer as described above, and then put on ice for 30 minutes so that the cells could be completely lysed. The lysate was centrifuged at 14000 rpm for 30 minutes, and the supernatant was collected. A BCA protein analysis kit (Pierce, Rockford, Ill.) was used to determine the concentration of each sample, and the samples in the same amount were added with anti-ERK antibody in the same amount, and reacted at 4° C. for 2 hours. Then, each of the samples was added with 10 μl of protein G-agarose (GenDEPOT) and reacted at 4° C. for 10 hours, and then centrifuged at 3000 rpm for 1 minute, washed with RIPA buffer, and centrifuged again. Then, the precipitated protein G-agarose was collected, and electrophoresis was carried out.

GSK3-beta / beta-catenin = assay: Western blotting of pGSK3-beta, GSK3-beta, pCatenin and Catenin in HaCaT; type: cell-based, human; conditions: 30 minutes, FIG. 5A
Description: The pachastrissamine's effect on beta-catenin protein expression was researched. In the same manner as described in Example 1, a HaCaT cell line was cultured.

FoxO3a = assay: Immunocytochemistry of intracellular FoxO3a distribution; type: cell-based
Description: In order to carry out Immunocytochemistry analysis, cells were transferred to chamber slides, and cultured in a CO2 incubator (37° C., 5%) for 24 hours. After about 12 hours of serum starvation, the cultured cell lines were treated with 10 μg/ml of pachastrissamine for 24 hours. The cell lines treated with pachastrissamine were fixed with 100% methanol, and washed with PBS. Then, in order to make the cells permeable, the cell lines were reacted in a 0.5% Triton X-100 and washed with a PBS solution. Then, by using a solution including 10% FBS and 0.1% gelatin, blocking was carried out at room temperature for 1 hour, and FoxO3a antibody was reacted at 4° C. for 12 hours. After the reaction, the cells were washed with PBS, reacted with a secondary antibody of Alex488 (invitrogen) at room temperature, and washed with PBS again. Finally, for nuclear stain, the cells were reacted with DAPI and washed with PBS. The slide was washed with PBS, attached with glass coverslip, and analyzed through a microscope.
After the cells with or without over-expression of beta-catenin were treated with pachastrissamine, the distribution of intracellular FoxO3a protein was determined in the same manner as described in Example 4-3.

ERK = assay: Western blotting of EGF-induced ERK activity in HEK293T; type: cell-based; conditions: with 100 μg/ml of EGF, FIG. 3D
Description: In the same manner, in a sample of HEK293T (Kidney epithelial cell) cell line treated with pachastrissamine and 100 μg/ml of EGF (epidermal growth factor), ERK activity was determined (see FIG. 3D).

[1] = pachastrissamine 10 μg/ml, LiCl 300 nM

In the case of `CCCCCCCCCCCCCC[C@@H]1OC[C@H](N)[C@@H]1O` [pachastrissamine], the “beta-catenin protein degradation in malignant melanoma cell line” value (beta-catenin) is reported as “can induce the degradation of beta-catenin protein”, the “number of cells compared to no treatment” value (A375 cell line; 10 μg/ml, FIGS. 2C, 2D) is reported as “the number of cells was decreased” and the “number of cells with lithium chloride as well as pachastrissamine, compared to only pachastrissamine” value (A375 cell line; pachastrissamine 10 μg/ml + lithium chloride 300 nM (PA+Li)) is reported as “the number of cells was higher”. For the same compound, the “phosphorylation of AKT after 30 minutes” value (AKT; 5 μg/ml phytosphingosine, 30 minutes) was “reduction of phosphorylation of AKT”, the “degree of AKT phosphorylation after 60 minutes” value (AKT; 60 minutes) was “increased” and the “degree of binding between ERK and FoxO3a” value (ERK and FoxO3a) was “significantly decreased”. For the same compound, the beta-catenin protein degradation (GSK3-beta / beta-catenin; 10 μg/ml) was “induced the degradation of beta-catenin protein”, the “phosphorylation of GSK3-beta” value (GSK3-beta / beta-catenin; [1]) was “phosphorylation of GSK3-beta was inhibited” and the phosphorylation of beta-catenin (GSK3-beta / beta-catenin; [1]) was “increasing the phosphorylation of beta-catenin”. The “movement of FoxO3a protein to a nucleus” value (FoxO3a; 10 μg/ml, 24 hours, FIG. 4D) was “significantly increased”, the “distribution of intracellular FoxO3a protein in cells with over-expression of beta-catenin” value (FoxO3a; HaCaT with over-expression of beta-catenin (FoxO3a mostly in cytosol before treatment), FIG. 5D) was “moved into the nucleus again” and the “ERK activity caused by EGF” value (ERK) was “almost perfectly inhibit the ERK activity caused by EGF”.

Source: patent US8609718B2, “Pharmaceutical composition used in treatment of hyperproliferative skin conditions and malignant melanomas comprising pachastrissamine as active ingredient” (Catholic University Industry Academy Cooperation Foundation, priority 2009, dated 2013)
